SMILES strings stand for the structures. Where a name gives a salt, the structure may show the parent alone. A value given as a limit tells only on which side of the number the result lay.

Assay [1] has as its target T1, human platelet PDE5 (Homo sapiens, UniProt O76074).
T1 construct: utilizes PDE5 isolated from human platelets; from tissue; host or cells: human platelets
In words: Method A: PDE-5 Inhibition Scintillation Proximity Assay (SPA) - Human Platelet. As to conditions: cGMP substrate 500 nM, PDE5 isolated from human platelets. The assay is classed as biochemical. An excerpt:
Method A: PDE-5 Inhibition Scintillation Proximity Assay (SPA)—Human Platelet
The assay measures the inhibition of human platelet PDE5 enzyme activity by a test compound in an in vitro assay that utilizes PDE5 isolated from human platelets. The PDE5 enzyme can be isolated from platelets essentially by a modification of the method of Thompson, W J et al.; Biochemistry 18(23), 5228-5237, 1979, as described by Ballard S A et al.; J. Urology 159(6), 2164-2171, 1998. PDE5 catalyzes the hydrolysis of [^3H]cGMP to the 5′ nucleotide [^3H]GMP. [^3H]GMP binds to yttrium silicate SPA beads and is detected by scintillation counting. […] The inhibition of enzyme activity is calculated relative to total PDE5 activity of uninhibited controls.
(§1) PDE5 IC50 Assay: 96-Well Microtiter Plate Format
(§2) Buffer A: 20 mM Tris-HCl, 5 mM MgCl2, pH 7.4
(§3) Buffer B: 2 mg/ml BSA in Buffer A (enzyme buffer)
cGMP substrate: Final concentration of 500 nM in assay
The amount of ^3H-labeled substrate added depends upon the specific activity of [^3H]cGMP, and it is diluted with a 10 mM stock of cold cGMP in Buffer A for a final substrate concentration of 500 nM in the assay.
(§4) PDE enzyme: Prepared in Buffer B. The dilution factor is determined by enzyme activity.
SPA beads: 20 mg/ml suspension prepared in dH2O.
Stocks of standard and test compounds are prepared at 5 mM in 100% DMSO. Compounds are serially diluted in separate dilution plates using a 10-point ½ log dilution format. 2 μl of the compound dilutions are added in duplicate to the wells of the assay plate; 2 μl of 100% DMSO are added to designated control wells. 25 μl of Buffer A are added to all wells. 25 μl of Buffer B are added to the negative control wells, and 25 μl of enzyme are added to the remaining wells. 50 μl of substrate are added to each well. Plates are sealed and incubated for 60 minutes on a plate shaker at 30 C. 50 μl of SPA beads are added to stop the reaction. The plates are again sealed and shaken for 15 minutes to allow the beads to bind the GMP product. The beads are allowed to settle for 30 minutes and then read on a NXT TopCount. Data is analyzed with the ECADA application. In this analysis, % inhibition is calculated: (mean maximum−compound value/(mean maximum−mean minimum)×100. IC50s are determined from sigmoid dose-response curves of enzyme activity vs compound concentration.
In general terms: SPA uses beads or plates that emit light when radiolabelled molecules are held near them.

Assay [2] concerns the target T1, human platelet PDE5. The assay is described as follows: Method B: PDE-5 Inhibition Scintillation Proximity Assay (SPA) - Human Platelet (modified protocol of Method A). The assay is classed as biochemical. Conditions: cGMP substrate 50 nM, PDE5 isolated from human platelets. How it is done:
Method B: PDE-5 Inhibition Scintillation Proximity Assay (SPA)—Human Platelet
This method is a modified protocol of Method A.
The assay measures the inhibition of human platelet PDE5 enzyme activity by a test compound in an in vitro assay that utilizes PDE5 isolated from human platelets. PDE5 catalyzes the hydrolysis of [^3H]cGMP to the 5′ nucleotide [^3H]GMP. [^3H]GMP binds to yttrium silicate SPA beads and is detected by scintillation counting. The inhibition of enzyme activity is calculated relative to total PDE5 activity of uninhibited controls.
as §1, §2, §3
cGMP substrate: Final concentration of 50 nM in assay
The amount of ^3H-labeled substrate added depends upon the specific activity of [^3H]cGMP, and it is diluted in Buffer A.
as §4
SPA beads: 4 mg/ml suspension prepared in dH2O.
Stocks of standard and test compounds are prepared at 2 mM in 100% DMSO. Compounds are serially diluted in separate dilution plates using an 8-point ⅕ log dilution format such that the starting concentration in the assay is 2 μM for an initial IC50 screen. 27 μl of Buffer A are added to the wells of the assay plates. From the dilution plates, 3 μl of diluted compounds are delivered in duplicate or 3 μl of 100% DMSO (for positive and negative controls) are added. 30 μl of enzyme are added. For the negative control wells, Buffer B is substituted in place of the enzyme. 30 μl of labeled substrate are added to all wells.
After incubating for 60 minutes at room temperature, the reaction is stopped with the addition of 30 μl of the yttrium silicate beads. These beads are dense and require constant agitation while being added to the plate. The plates are sealed and shaken on a plate shaker for fifteen minutes to allow the beads to bind the GMP product.
After allowing the beads to settle for 30 minutes, plates are read on a NXT TopCount and data is analyzed in the Bioassay Solver application. Percent inhibition values are calculated using the means of the 0% and 100% controls on each plate. The estimates of the 4-parameters of the logistic, sigmoid dose-response model are then calculated using the well-level percent inhibition values for each compound. These estimates are used to calculate the concentration that corresponds to 50% inhibition.

As usually defined, the IC50 is the midpoint of a concentration-inhibition curve. Low values mean greater potency, high ones weaker potency. In assay [1], `CCOCCn1nc(CN2CCN(C)CC2)c2nc(N(C)C)nc(Nc3cc(C)ccn3)c21` [Example 18, 1-(2-Ethoxyethyl)-N^5,N^5-dimethyl-3-[(4-methylpiperazin-1-yl)methyl]-N^7-(4-methylpyridin-2-yl)-1H-pyrazolo[4,3-d]pyrimidine-5,7-diamine hydrochloride] yielded an IC50 of 2.3 nM.
With `CCOCCn1nc(CN2CCC[C@@H]2COC)c2nc(N(C)C)nc(Nc3cc(C)ccn3)c21` [Example 19], in assay [1], the IC50 stood at 4.3 nM.
In turn, `CCOCCn1nc(CN2CCC[C@H]2COC)c2nc(N(C)C)nc(Nc3cc(C)ccn3)c21` [Example 20] yielded an IC50 in assay [1] of 2.1 nM.
Regarding `CCOCCn1nc(CN2CC[C@H](OC)C2)c2nc(N(C)C)nc(Nc3cc(C)ccn3)c21` [Example 21], the IC50 in assay [1] is 2 nM.
As for `CCOCCn1nc(CN2CC[C@@H](OC)C2)c2nc(N(C)C)nc(Nc3cc(C)ccn3)c21` [Example 22], the IC50 in assay [1] worked out at 3.2 nM.
On the same count and under the same terms, then `CCCNCc1nn(CCOCC)c2c(Nc3cc(C)ccn3)nc(N(C)C)nc12` [Example 24], with 5.8 nM; and `CCOCCn1nc(CN2CCCC2)c2nc(N(C)C)nc(Nc3cc(C)ccn3)c21` [Example 25], with 5.2 nM.
With `CCNCc1nn(CCOCC)c2c(Nc3ccc(C)cn3)nc(N(C)C)nc12` [Example 26], it took 3.4 nM to reach half-maximal inhibition in assay [1] (IC50).
In assay [1], `CCOCCn1nc(CN(C)C)c2nc(N(C)C)nc(Nc3cc(C)ccn3)c21` [Example 28] came in with an IC50 of 6.9 nM.
In assay [1], `CCOCCn1nc(CNCCOC)c2nc(N(C)C)nc(Nc3cc(C)ccn3)c21` [Example 29] displayed a 50% inhibitory concentration (IC50) of 3.3 nM.
Consider `CCOCCn1nc(CN2CCOCC2)c2nc(N(C)C)nc(Nc3cc(C)ccn3)c21` [Example 30, 1-(2-ethoxyethyl)-N^5,N^5-dimethyl-3-[(4-morpholino)methyl]-N^7-(4-methylpyridin-2-yl)-1H-pyrazolo[4,3-d]pyrimidine-5,7-diamine], for which the IC50 in assay [1] came to 1.06 nM.
`CCNCc1nn(CCOCC)c2c(Nc3cc(C)ccn3)nc(N(C)C)nc12` [Example 31, 1-(2-ethoxyethyl)-3-(ethylaminomethyl)-N^5,N^5-dimethyl-N^7-(4-methylpyridin-2-yl)-1H-pyrazolo[4,3-d]pyrimidine-5,7-diamine] came in with an IC50 in assay [1] of 3.4 nM. This IC50 is about 3.2-fold higher than that of the compound before.
Same read-out and setting: with `CCNCc1nn(CCOCC)c2c(Nc3ccncn3)nc(N(C)C)nc12` [Example 32, 1-(2-ethoxyethyl)-3-(ethylaminomethyl)-N^5,N^5-dimethyl-N^7-(pyrimidin-4-yl)-1H-pyrazolo[4,3-d]pyrimidine-5,7-diamine] the figure was over 100 nM.
Still for that read-out and setting: then `CCOCCn1nc(CNCCOC)c2nc(N(C)C)nc(Nc3ccncn3)c21` [Example 33, 1-(2-ethoxyethyl)-3-[(2-methoxyethylamino)methyl]-N^5,N^5-dimethyl-N^7-pyrimidin-4-yl-1H-pyrazolo[4,3-d]pyrimidine-5,7-diamine], with over 100 nM; and `CCOCCn1nc(CN(CC)CC)c2nc(N(C)C)nc(Nc3ccncn3)c21` [Example 34, 3-(Diethylaminomethyl)-1-(2-ethoxyethyl)-N^5,N^5-dimethyl-N^7-(pyrimidin-4-yl)-1H-pyrazolo[4,3-d]pyrimidine-5,7-diamine], with 23.6 nM.
`CCOCCn1nc(CNC)c2nc(N(C)C)nc(Nc3ccncn3)c21` [Example 35, 1-(2-ethoxyethyl)-N^5,N^5-dimethyl-3-(methylaminomethyl)-N^7-pyrimidin-4-yl-1H-pyrazolo[4,3-d]pyrimidine-5,7-diamine hydrochloride] came in with an IC50 in assay [1] of over 100 nM.
In turn, `CCOCCn1nc(CNC)c2nc(N(C)CCO)nc(Nc3cc(C)ccn3)c21` [Example 36, 2-{[1-(2-ethoxyethyl)-3-(methylaminomethyl)-7-(4-methylpyridin-2-ylamino)-1H-pyrazolo[4,3-d]pyrimidin-5-yl]methylamino}ethanol hydrochloride] gave an IC50 in assay [1] of 188 nM.
Compound `CCOCCn1nc(CNC)c2nc(N(C)CCOC)nc(Nc3cc(C)ccn3)c21` [Example 37, 1-(2-ethoxyethyl)-N^5-(2-methoxyethyl)-N^5-methyl-3-(methylaminomethyl)-N^7-(4-methylpyridin-2-yl)-1H-pyrazolo[4,3-d]pyrimidine-5,7-diamine hydrochloride] returned an IC50 in assay [1] of 4.4 nM.
Still for that read-out and setting: with `CCCN(Cc1nn(CCOCC)c2c(Nc3cc(C)ccn3)nc(N(C)C)nc12)C(C)=O` [Example 39, N-[5-Dimethylamino-1-(2-ethoxyethyl)-7-(4-methylpyridin-2-ylamino)-1H-pyrazolo[4,3-d]pyrimidin-3-ylmethyl]-N-propylacetamide] the figure was 1.53 nM.
The same measure, in the same setting: then `CCOCCn1nc(CN2CCNCC2)c2nc(N(C)C)nc(Nc3cc(C)ccn3)c21` [Example 40, 1-(2-ethoxyethyl)-N^5,N^5-dimethyl-N^7-(4-methylpyridin-2-yl)-3-(piperazin-1-ylmethyl)-1H-pyrazolo[4,3-d]pyrimidine-5,7-diamine hydrochloride], with 5.8 nM.
`FC(F)(F)COCCn1nc(CN2CCNCC2)c2nc(N3CCNCC3)nc(Nc3ccncn3)c21` [Example 41, 5-Piperazin-1-yl-3-(piperazin-1-ylmethyl)-N-pyrimidin-4-yl-1-[2-(2,2,2-trifluoroethoxy)ethyl]-1H-pyrazolo[4,3-d]pyrimidin-7-amine trifluoroacetate] had an IC50 in assay [2] of 1.8 nM. In other words, the single-digit nanomolar range.
Still for that read-out and setting: with `C[C@@H]1CN(c2nc(Nc3ccncn3)c3c(n2)c(CN2CCOCC2)nn3CCOCC(F)(F)F)CCN1` [Example 42, 5-[(3R)-3-Methylpiperazin-1-yl]-3-(morpholin-4-ylmethyl)-N-pyrimidin-4-yl-1-[2-(2,2,2-trifluoroethoxy)ethyl]-1H-pyrazolo[4,3-d]pyrimidin-7-amine trifluoroacetate] the figure was 0.32 nM.
In assay [2], `FC(F)(F)COCCn1nc(CN2CCOCC2)c2nc(N3CCNCC3)nc(Nc3ccncn3)c21` [Example 43, 3-(Morpholin-4-ylmethyl)-5-piperazin-1-yl-N-pyrimidin-4-yl-1-[2-(2,2,2-trifluoroethoxy)ethyl]-1H-Pyrazolo[4,3-d]pyrimidin-7-amine trifluoroacetate] showed an IC50 of 0.21 nM.
With `CCN(C)c1nc(Nc2ccncn2)c2c(n1)c(CN1CCSCC1)nn2CCOCC(F)(F)F` [Example 44, N^5-Ethyl-N^5-methyl-N^7-pyrimidin-4-yl-3-(thiomorpholin-4-ylmethyl)-1-[2-(2,2,2-trifluoroethoxy)ethy]-1H-pyrazolo[4,3-d]pyrimidine-5,7-diamine trifluoroacetate], half-maximal inhibition in assay [2] (IC50) was put at 0.79 nM. This IC50 is about 3.8-fold higher than that of the compound before.
On to `C[C@@H]1CN(c2nc(Nc3ccncn3)c3c(n2)c(CN2CCCCC2)nn3CCOCC(F)(F)F)CCN1` [Example 45, 5-[(3R)-3-Methylpiperazin-1-yl]-3-(piperidin-1-ylmethyl)-N-pyrimidin-4-yl-1-[2-(2,2,2-trifluoroethoxy)ethyl]-1H-pyrazolo[4,3-d]pyrimidin-7-amine trifluoroacetate], for which, in assay [2], the IC50 is 1.25 nM. This IC50 lies about 1.6-fold higher than the previous one.

(Values after patent publication US7569572B2, “Pyrazolo[4,3-D]pyrimidines” (Pfizer Inc, priority 2004, dated 2009).)
